# According to PubChem BioAssay AID1963449 (Molecular Pharmacology Branch, DTP, NCI, 2024):
# pIC50: −log10 of the molar value. Where “and” joins values, the source holds several entries; their conditions need not be identical. Equal values may be shown once.
# System: 596521-263-R-J1-PDC complex spheroid growth
# Test: Anticancer human tumor 596521-263-R-J1-PDC patient-derived soft tissue sarcoma cell line growth inhibition [Asc]
# Conditions: for viability, T/C: stronger effect = lower value
# Procedure, shortened: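 Stromal components (HUVEC and hMSC) are co-assembled with the cancer cells into multicellular spheroids. Drugs are then added singly or paired, at concentrations falling by half-log increments from a clinically achievable maximum, capped at 10 microM without known Cmax.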
# [1] = curve of first compound, second compound 0.0316 µM
# [2] = curve of first compound, second compound 0.1 µM
# [3] = curve of first compound, second compound 0.316 µM
# [4] = curve of first compound, second compound 1 µM
# [5] = second compound 0.0316 µM, first compound 0.0316 µM
# [6] = second compound 0.0316 µM, first compound 0.1 µM
# [7] = second compound 0.0316 µM, first compound 0.316 µM
# [8] = second compound 0.0316 µM, first compound 1 µM
# [9] = second compound 0.1 µM, first compound 0.0316 µM
# [10] = second compound 0.1 µM, first compound 0.1 µM
# [11] = second compound 0.1 µM, first compound 0.316 µM
# [12] = second compound 0.1 µM, first compound 1 µM
# [13] = second compound 0.316 µM, first compound 0.0316 µM
# [14] = second compound 0.316 µM, first compound 0.1 µM
# [15] = second compound 0.316 µM, first compound 0.316 µM
# [16] = second compound 0.316 µM, first compound 1 µM
# [17] = second compound 1 µM, first compound 0.0316 µM
# [18] = second compound 1 µM, first compound 0.1 µM
# [19] = second compound 1 µM, first compound 0.316 µM
# [20] = second compound 1 µM, first compound 1 µM
# 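Note: spheroids exposed to compounds for 7 days.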
compound,measurement,setting,value
C=C(F)C(=O)N1CCN(c2nc(OCC3CCCN3C)nc3c2CCN(c2cccc4cccc(Cl)c24)C3)CC1CC#N (stereo unspecified) + Cc1c(S(C)(=O)=O)c(-c2cc(F)cc(N3CCN(c4ccc(NS(=O)(=O)c5ccc(NC(CCN6CCC(C(=O)OCCCP(=O)(O)O)CC6)CSc6ccccc6)c(S(=O)(=O)C(F)(F)F)c5)cc4)CC3)c2)c(-c2ccc(Cl)cc2)n1C(C)C,pIC50,[1],5.30
same,pIC50,[2],5.34
same,pIC50,[3],5.37
same,pIC50,[4],5.56
same,pIC50,"curve of first compound, second compound 3.16 µM",6.18
same,pIC50,"curve of first compound, second compound 10 µM",6.49
same,"viability, T/C",[5],110%
same,"viability, T/C",[6],98.3%
same,"viability, T/C",[7],87.6%
same,"viability, T/C",[8],101%
same,"viability, T/C","second compound 0.0316 µM, first compound 3.16 µM",81.9%
same,"viability, T/C","second compound 0.0316 µM, first compound 10 µM",0.22%
same,"viability, T/C",[9],98.4%
same,"viability, T/C",[10],97.9%
same,"viability, T/C",[11],93.9%
same,"viability, T/C",[12],91.1%
same,"viability, T/C","second compound 0.1 µM, first compound 3.16 µM",72.8%
same,"viability, T/C","second compound 0.1 µM, first compound 10 µM",0.18%
same,"viability, T/C",[13],104%
same,"viability, T/C",[14],98%
same,"viability, T/C",[15],92.4%
same,"viability, T/C",[16],89.6%
same,"viability, T/C","second compound 0.316 µM, first compound 3.16 µM",68.2%
same,"viability, T/C","second compound 0.316 µM, first compound 10 µM",0.17%
same,"viability, T/C",[17],84.3%
same,"viability, T/C",[18],87%
same,"viability, T/C",[19],76.7%
same,"viability, T/C",[20],80%
same,"viability, T/C","second compound 1 µM, first compound 3.16 µM",46%
same,"viability, T/C","second compound 1 µM, first compound 10 µM",1.18%
same,"viability, T/C","second compound 3.16 µM, first compound 0.0316 µM",79.5%
same,"viability, T/C","second compound 3.16 µM, first compound 0.1 µM",67.4%
same,"viability, T/C","second compound 3.16 µM, first compound 0.316 µM",52.4%
same,"viability, T/C","second compound 3.16 µM, first compound 1 µM",50.5%
same,"viability, T/C","second compound 3.16 µM, first compound 3.16 µM",26.9%
same,"viability, T/C","second compound 3.16 µM, first compound 10 µM",0.2%
same,"viability, T/C","second compound 10 µM, first compound 0.0316 µM",58.4%
same,"viability, T/C","second compound 10 µM, first compound 0.1 µM",50.1%
same,"viability, T/C","second compound 10 µM, first compound 0.316 µM",48.3%
same,"viability, T/C","second compound 10 µM, first compound 1 µM",44.2%
same,"viability, T/C","second compound 10 µM, first compound 3.16 µM",22%
same,"viability, T/C","second compound 10 µM, first compound 10 µM",1.02%
O=C(c1ccc(F)c(F)c1Nc1ccc(I)cc1F)N1CC(O)([C@@H]2CCCCN2)C1 + CNC(C)C(=O)NC1CN(S(=O)(=O)c2cccc(S(=O)(=O)N3CCC4CCC(C(=O)NC(c5ccccc5)c5ccccc5)N4C(=O)C(NC(=O)C(C)NC)C3)c2)CCC2CCC(C(=O)NC(c3ccccc3)c3ccccc3)N2C1=O,pIC50,"curve of first compound, second compound 0.00316 µM",6.75
same,pIC50,"curve of first compound, second compound 0.01 µM",6.61
same,pIC50,[1],6.68
same,pIC50,[2],6.73
same,pIC50,[3],6.73
same,pIC50,[4],6.83
same,"viability, T/C","second compound 0.00316 µM, first compound 0.00316 µM",94%
same,"viability, T/C","second compound 0.00316 µM, first compound 0.01 µM",89.4%
same,"viability, T/C","second compound 0.00316 µM, first compound 0.0316 µM",90.5%
same,"viability, T/C","second compound 0.00316 µM, first compound 0.1 µM",63.4%
same,"viability, T/C","second compound 0.00316 µM, first compound 0.316 µM",37.2%
same,"viability, T/C","second compound 0.00316 µM, first compound 1 µM",27.1%
same,"viability, T/C","second compound 0.01 µM, first compound 0.00316 µM",88.4%
same,"viability, T/C","second compound 0.01 µM, first compound 0.01 µM",75.8%
same,"viability, T/C","second compound 0.01 µM, first compound 0.0316 µM",93.3%
same,"viability, T/C","second compound 0.01 µM, first compound 0.1 µM",69.6%
same,"viability, T/C","second compound 0.01 µM, first compound 0.316 µM",45.2%
same,"viability, T/C","second compound 0.01 µM, first compound 1 µM",27.8%
same,"viability, T/C","second compound 0.0316 µM, first compound 0.00316 µM",96.6%
same,"viability, T/C","second compound 0.0316 µM, first compound 0.01 µM",87%
same,"viability, T/C",[5],84.9%
same,"viability, T/C",[6],61%
same,"viability, T/C",[7],43.9%
same,"viability, T/C",[8],27.3%
same,"viability, T/C","second compound 0.1 µM, first compound 0.00316 µM",76.5%
same,"viability, T/C","second compound 0.1 µM, first compound 0.01 µM",73.3%
same,"viability, T/C",[9],73%
same,"viability, T/C",[10],65%
same,"viability, T/C",[11],37.5%
same,"viability, T/C",[12],22.8%
same,"viability, T/C","second compound 0.316 µM, first compound 0.00316 µM",78.9%
same,"viability, T/C","second compound 0.316 µM, first compound 0.01 µM",91.6%
same,"viability, T/C",[13],77.4%
same,"viability, T/C",[14],65.9%
same,"viability, T/C",[15],36.8%
same,"viability, T/C",[16],23.8%
same,"viability, T/C","second compound 1 µM, first compound 0.00316 µM",65.9%
same,"viability, T/C","second compound 1 µM, first compound 0.01 µM",68.8%
same,"viability, T/C",[17],74.2%
same,"viability, T/C",[18],53.2%
same,"viability, T/C",[19],37.9%
same,"viability, T/C",[20],18.3%
Cc1nc(N2CCC3(CC2)COC(C)C3N)c(CO)nc1Sc1ccnc(N)c1Cl (stereo unspecified),"viability, T/C",compound 0.00949 µM,92.9% and 104% and 105%
same,"viability, T/C",compound 0.03 µM,105% and 93.2% and 112%
same,"viability, T/C",compound 0.0949 µM,95.7% and 91.3% and 95.2%
same,"viability, T/C",compound 0.3 µM,96.7% and 100% and 87%
same,"viability, T/C",compound 0.949 µM,88.2% and 85.2% and 73.8%
same,"viability, T/C",compound 3 µM,64.9% and 62.4% and 62.7%
same,pIC50,curve of compound,< 5.52
